Results as given in BindingDB's records for doi:10.1021/jm010992z (Pharmazeutisches Institut Der Universität Freiburg, 2002).

Key:
[1] = molecular target: Sodium-dependent dopamine transporter (Rattus norvegicus) (UniProt P23977); assay: The compound was tested for inhibition of dopamine reuptake
[2] = Sigma opioid receptor type 2 affinity in rat liver by employing [3H]ditolylguanidine as radioligand
[3] = Sigma opioid receptor type 1 affinity in guinea pig brain by employing [3H](+)-pentazocine as radioligand.

Sodium-dependent dopamine transporter (Rattus norvegicus), sequence (P23977 whole entry, looked up): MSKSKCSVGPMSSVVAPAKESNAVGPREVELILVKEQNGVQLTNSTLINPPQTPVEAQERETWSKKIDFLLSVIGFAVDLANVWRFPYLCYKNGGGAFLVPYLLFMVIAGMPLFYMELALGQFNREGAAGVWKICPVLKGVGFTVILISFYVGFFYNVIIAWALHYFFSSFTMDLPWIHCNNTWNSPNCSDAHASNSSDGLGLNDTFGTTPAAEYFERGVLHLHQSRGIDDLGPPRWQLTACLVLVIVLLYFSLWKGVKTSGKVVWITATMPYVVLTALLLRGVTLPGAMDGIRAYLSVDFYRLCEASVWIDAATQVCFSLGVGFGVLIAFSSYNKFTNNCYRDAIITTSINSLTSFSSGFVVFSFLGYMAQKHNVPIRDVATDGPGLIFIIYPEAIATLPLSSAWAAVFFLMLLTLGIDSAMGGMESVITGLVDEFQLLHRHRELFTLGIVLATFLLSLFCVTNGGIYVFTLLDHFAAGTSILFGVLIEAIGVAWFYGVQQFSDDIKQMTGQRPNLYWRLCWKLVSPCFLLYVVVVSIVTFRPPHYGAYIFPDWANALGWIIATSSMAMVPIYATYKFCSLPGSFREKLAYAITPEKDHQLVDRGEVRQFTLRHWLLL

Row | Compound | IC50 [1] [nM] | Ki [2] [nM] | Ki [3] [nM]
1 | COC1Cc2ccccc2C2(CCN(CCCc3ccccc3)CC2)O1 (stereo not given) | 1600 | – | –
2 | COC1OC2(CCN(Cc3ccccc3)CC2)c2ccccc21 (stereo not given) [1'-benzyl-3-methoxyspiro[1,3-dihydroisobenzofuran-1,4'-(hexahydropyridine)]] | > 10000 | – | –
3 | OC1Cc2ccccc2C2(CCN(CCc3ccccc3)CC2)O1 (stereo not given) [1'-phenethylspiro[3,4-dihydro-1H-isochromene-1,4'-(hexahydropyridine)]-3-ol] | – | 107 | 44
4 | COC1Cc2ccccc2C2(CCN(CCCCc3ccccc3)CC2)O1 (stereo not given) [1-[3-methoxyspiro[3,4-dihydro-1H-isochromene-1,4'-(hexahydropyridine)]-1-yl]-4-phenylbutane] | – | 311 | 10
5 | COC1Cc2ccccc2C2(CCN(C/C=C/c3ccccc3)CC2)O1 (stereo not given) [3-[3-methoxyspiro[3,4-dihydro-1H-isochromene-1,4'-(hexahydropyridine)]-1-yl]-1-phenyl-(E)-1-propene] | – | 4000 | 13
6 | COC1Cc2ccccc2C2(CCN(C)CC2)O1 (stereo not given) [3-methoxy-1'-methylspiro[3,4-dihydro-1H-isochromene-1,4'-(hexahydropyridine)]] | – | > 10000 | 4400
